Experimental data reported in patent US5708005A, “Quinolines, their production and use” (priority 1995, dated 1998).
pIC50: −log10 of the molar value.

Columns and labels:
[1] = target: melatonin receptor; assay: Action of inhibiting 2-[^125 I]iodomelatonin binding (forebrain membrane sample); design: species or system 7-days-old chicken (white leghorn); conditions: 80 pM 2-[^125 I]iodomelatonin, chicken forebrain membranes, 90 minutes at 25° C., pH 7.7; non-specific binding with 10 μM melatonin; log-probit analysis; read-out: IC50 (50% inhibiting concentration), inhibition of 2-[^125 I]iodomelatonin binding
Procedure: Action of inhibiting 2-[^125 I]iodomelatonin binding
The forebrains of 7-days-old chicken (white leghorn) were homogenized with ice-cold assay buffer (50 mM Tris-HCl, pH 7.7 at 25° C.) and centrifuged at 44,000×g for 10 minutes at 4° C. The pellet was washed once with the same buffer. For the assay, the frozen tissue pellet was thawed and homogenized with the assay buffer to make a protein concentration of 0.3-0.4 mg/ml. In this way, the membrane sample was prepared. The membrane sample was incubated with a test compound and a ligand (80 pM 2-[^125 I]iodomelatonin, about 100,000 dpm) in a total volume of 0.5 ml for 90 minutes at 25° C. The reaction was terminated by adding 3 ml of ice-cold assay buffer immediately followed by vacuum filtration on Whatman GF/B which was further washed twice with 3 ml of ice-cold assay buffer. The radioactivity on the filter was determined by means of γ-counter. […] The 50% inhibiting concentration (IC50) was determined by the log-probit analysis.

[2] = system: central nervous system; conditions: administered peripherally; Bioorganic & Medicinal Chemistry Letters, Vol. 4, p. 1485 (1994); cited from earlier work
[3] = system: metabolic enzymes; conditions: Rinsho Kensa, Vol. 38, No. 11 (1994); cited from earlier work

pIC50 [1] | Compound | activity on central nervous system [2] | metabolism by metabolic enzymes in a living body [3]
8.08 | COc1ccc2nc(Cl)cc(CCNC(C)=O)c2c1 [Working Example 1, N-[2-(2-chloro-6-methoxyquinolin-4-yl)ethyl]acetamide] | – | –
– | COc1ccc2[nH]cc(CCNC(C)=O)c2c1 [melatonin, N-acetyl-5-methoxytryptamine] | inactive | readily metabolized
8.05 | COc1ccc2nc(Cl)cc(CCNC(=O)C(F)(F)F)c2c1 [compound 3] | – | –
